The values that follow come from PMC6277555, “Short Symmetric-End Antimicrobial Peptides Centered on β-Turn Amino Acids Unit Improve Selectivity and Stability” (Frontiers in Microbiology, 2018).

The test system of one data set is B. subtilis CMCC 63501. It counts as cell-based, Bacillus subtilis. Here is the method:
(§1) The minimal inhibitory concentration (MIC) was determined according to a previously described method ([Chou et al., 2016]). Bacteria were cultured overnight to mid-log phase in MHB at 37°C and then diluted to give final concentrations ranging from 2 × 10^5 to 7 × 10^5 CFU/mL. Then, 50 μL of serial twofold dilutions of the peptides were added to each well in 96-well microtiter plates with a mixed solution containing 0.01% acetic acid and 0.2% bovine serum albumin (BSA, Sigma) was used to dissolve and dilute the peptides. Then, equal amounts of bacterial aliquots were incubated with the above peptide solution for 18–24 h at 37°C. The experiment was performed in triplicate using three replicates for each peptide and each bacterium. The broth was employed as a negative control and the broth with microbial cells was used as a positive control. The lowest concentration of peptide that prevented visible turbidity was defined as the MIC.

The test system of another data set is S. pullorum C79-13. Format: cell-based, Salmonella pullorum. The procedure:
as §1

Data set [1] concerns total genomic DNA from E. coli. Briefly: DNA binding assay (gel retardation). Further details: species or system Escherichia coli. The settings on record: 1 h. Here is the method:
Gel retardation experiments were performed as previously described ([Zhu et al., 2015]). The total genomic DNA from E. coli was extracted using the rapid bacterial genomic DNA isolation kit (Sangon Biotech, China). First, increasing concentrations of peptides were mixed with 400 ng of genomic DNA in 20 μL of binding buffer [5% glycerol, 10 mM Tris-HCl (pH 8.0), 1 mM EDTA, 1 mM dithiothreitol, 20 mM KCl, and 50 μg/mL bovine serum albumin] and incubated at 37°C for 1 h. Next, 4 μL of native loading buffer [10% Ficoll 400, 10 mM Tris-HCl (pH 7.5), 50 mM EDTA, 0.25% bromophenol blue, and 0.25% xylene cyanol] was mixed with the samples and a 12 μL aliquot was subjected to 1% agarose gel electrophoresis in 0.5× Tris borate-EDTA buffer (45 mM Tris-borate and 1 mM EDTA, pH 8.0). Finally, gel retardation was visualized using UVP bioimaging systems.

A short description of data set [2]: Calcein dye leakage from negatively charged LUVs. The note with it: POPG/CL (3:1) LUVs, 100 μM lipid, 15 min, all tested concentrations (2 to 64 μM); relative to 0.1% Triton X-100. The procedure:
Prepared calcein-entrapped large unilamellar vesicles (LUVs) were optimized using a previous method ([Stromstedt et al., 2009]). The negatively charged lipids composed of POPG/CL (3:1) were dissolved in chloroform, dried with a stream of nitrogen and resuspended in dye buffer solution (70 mM calcein, 10 mM Tris, 150 mM NaCl, and 0.1 mM EDTA, pH 7.4). The suspension was subjected to 10 freeze-thaw cycles in liquid nitrogen and extruded 21 times through polycarbonate filters (two stacked 100-nm pore size filters) with a LiposoFast extruder (Avestin, Inc., Canada). Untrapped calcein was removed by gel filtration on a Sephadex G-50 column. The lipid concentration was determined by quantitative phosphorus analysis. […] The leakage of calcein from LUVs was monitored by measuring the fluorescence intensity at an excitation wavelength of 490 nm and an emission wavelength of 520 nm on an F-4500 Fluorescence Spectrophotometer (Hitachi, Japan). […] The percentage of the calcein release caused by the AMPs was calculated using the following equation: (3) Dye release (%)=(Fobs−F0)/(F100−F0)×100% where F0 is the fluorescence intensity of the liposomes (background) and Fobs and F100 are the fluorescence intensities achieved by the peptides and Triton X-100, respectively.

The test system of the next data set is B. pyocyaneum ATCC 27853. Format: cell-based, Bacterium pyocyaneum. Here is the method: as §1
The nature of data set [3]: RP-HPLC retention time as measure of relative hydrophobicity. The note with it: analytical RP-HPLC; hydrophobicity increases with retention time. Format: physicochemical. Here is the method:
These peptides' […] identified via matrix-assisted laser desorption/ionization time-of-flight mass spectrometry (MALDI-TOF MS, Linear Scientific Inc., United States), using α-cyano-4-hydroxycinnamic acid as the matrix. […] Quantitative peptides were dissolved in deionized water and stored at -20°C before the assessments. The rest of the peptides were stored as powders at -20°C to prevent peptide degradation. The structures and molecular weights of the peptides were verified by MALDI-TOF MS. […] The relative hydrophobicity of the symmetric-end peptides was reliably reflected by their different HPLC retention times, and the hydrophobicity increased with increasing HPLC retention times ([Lee et al., 2014]; [Zhu et al., 2014]). The HPLC retention times for […]

Data set [4] deals with S. epidermidis ATCC 12228. It counts as cell-based, Staphylococcus epidermidis. Here is the method: as §1
For another data set, the system named is S. aureus ATCC 29213. It counts as cell-based, Staphylococcus aureus. Here is the method: as §1, with “18-24” for “18–24”, “MIC. The condition sensitivity of peptides was tested in an MIC assay in different environments, including salt sensitivity, thermal sensitivity and different pH values similar to our previous method ([[…] et al., 2008]; [Ma et al., 2012]). […] For the heat resistance experiments, the peptides were incubated at 100°C for 30 min and cooled on ice for 10 min. […] The determination methods for these MIC assays were same as described above. To test the effects of serum on the antimicrobial activities of the peptides, human serum was dissolved in MHB to reach final concentrations of 25 and 50%. The determination methods for these MIC assays were same as described above.” for “MIC.”

Molecules are shown by their SMILES. ≈ marks a conversion by molar mass, not a printed value. Residues, ends and D or L forms follow the SMILES beside them.

A word on the MIC: it is the lowest concentration that inhibits growth of the organism. On to `CC[C@H](C)[C@H](N)C(=O)N[C@@H](Cc1c[nH]cn1)C(=O)N[C@@H](CCCCN)C(=O)N[C@@H](Cc1ccccc1)C(=O)N[C@@H](Cc1c[nH]c2ccccc12)C(=O)N[C@@H](CCCNC(=N)N)C(=O)N[C@@H](CS)C(=O)N[C@@H](CCCNC(=N)N)C(=O)N[C@@H](CCCNC(=N)N)C(=O)N[C@@H](CCCNC(=N)N)C(=O)N[C@@H](Cc1ccccc1)C(=O)N[C@@H](CS)C(=O)N[C@@H](CCCNC(=N)N)C(=O)N[C@@H](Cc1c[nH]c2ccccc12)C(=O)N[C@@H](Cc1ccccc1)C(=O)N[C@@H](CCCCN)C(=O)N[C@@H](Cc1c[nH]cn1)C(=O)N[C@H](C(N)=O)[C@@H](C)CC` [PQ] (H-IHKFWRCRRRFCRWFKHI-NH2; N-terminus assumed), for which the MIC with B. subtilis CMCC 63501 worked out at 16 µM (≈ 41.2 µg/mL). The compound also returned an MIC against S. pullorum C79-13 of 8 µM (≈ 20.6 µg/mL). Further, the “Concentration showing DNA-binding ability” value in data set [1] is above 128 µM. Moreover, in data set [2], the “Dye leakage (calcein release)” value is listed as “more than 40%”. Also, the MIC against B. pyocyaneum ATCC 27853 is 8 µM (≈ 20.6 µg/mL). Further, the “Retained time (HPLC retention time)” value in data set [3] turned out to be 12.385 min. This compound yielded an MIC in data set [4] of 8 µM (≈ 20.6 µg/mL). In the data set on S. aureus ATCC 29213 (ATCC 29213), the MIC turned out to be 8 µM (≈ 20.6 µg/mL); the “MIC, CaCl2” value was found to be 8 µM (≈ 20.6 µg/mL); the “MIC, Control” value came out at 8 µM (≈ 20.6 µg/mL); the “MIC, FeCl3” value turned out to be 8 µM (≈ 20.6 µg/mL). In addition, in the data set on S. aureus ATCC 29213 (ATCC 29213), the “MIC, Heat (100°C)” value is 32 µM (≈ 82.4 µg/mL); the “MIC, KCl” value was found to be 8 µM (≈ 20.6 µg/mL); the “MIC, MgCl2” value came out at 8 µM (≈ 20.6 µg/mL); the “MIC, NH4Cl” value turned out to be 8 µM (≈ 20.6 µg/mL). In addition, in the data set with S. aureus ATCC 29213 (ATCC 29213), the “MIC, NaCl” value was found to be 8 µM (≈ 20.6 µg/mL) and the “MIC, ZnCl2” value is 8 µM (≈ 20.6 µg/mL). In addition, the “MIC, pH 4.0” value against S. aureus ATCC 29213 (ATCC 29213, pH 4) stood at 8 μM. Also, the “MIC, pH 6.0” value with S. aureus ATCC 29213 (ATCC 29213, pH 6) was 8 μM. Further, in the data set with S. aureus ATCC 29213 (ATCC 29213, pH 8), the “MIC, pH 8.0” value came out at 8 μM. In addition, in the data set with S. aureus ATCC 29213 (ATCC 29213, pH 10), the “MIC, pH 10.0” value is listed as 8 μM.
